# Test results published in patent publication US6770740B1, “Crosslinked DNA condesate compositions and gene delivery methods” (The Regents of the University of Michigan, priority 1999, dated 2004).
# Where no end group is shown, it is not given here. The star is where a group is joined. Carboxymethyl = O=C(O)C*
# Columns and labels:
# Assay type in all cases: cell-based
# [1] = system: HepG2 cells; assay: Cell binding of 125I-DNA condensates, Example 1; details: 5 h transfection, 10 μg 125I-DNA condensates
# Method: Iodinated plasmid DNA was prepared with specific activity of 300 nCi per μg of DNA as described previously (Teribesi et al., 1998). Prior to forming DNA condensates, the specific activity of the ^125I DNA was adjusted to 4.5 nCi per μg of DNA by combining with unlabeled plasmid. DNA condensates were prepared using AlkCWK18, PEG-SS-CWK18 or PEG-VS-CWK18 as described above. Peptide ^125I-DNA condensates (10 μg) were used to transfer HepG2 cells for 5 h according to the procedure described above. The radioactive media was removed, cells were washed with phosphate buffered saline, harvested with lysis buffer, and the cell-associated radioactivity was quantified by gamma counting.
# [2] = system: HepG2 cells; assay: Luciferase reporter gene expression in HepG2 cells, Example 5
# Method: HepG2 cells (1.5×10^5) were plated on 6×35 mm wells and grown to 40-70% confluency in MEM supplemented with 10% FBS, penicillin and streptomycin (10,000 U/ml), sodium pyruvate (100 mM), and L-glutamine (200 mM). Transfections were performed in MEM (2 ml per 35 mm well) with 2% FBS and 80 μM chloroquine. Peptide DNA condensates (10 μg of DNA in 0.2 ml HBM) were added dropwise to triplicate wells. After a 5 h incubation at 37° C., the media was replaced with MEM supplemented with 10% FBS. After 24 h, cells were washed twice with ice-cold phosphate buffered saline (calcium and magnesium free) and then treated with 0.5 ml of ice-cold lysis buffer (25 mM Tris chloride pH 7.8, 1 mM EDTA, 8 mM magnesium chloride, 1% Triton X-100, 1 mM DTT) for 10 min. The cell lysate was scraped, transferred to 1.5 ml microcentrifuge tubes, and centrifuged for 7 min at 13,000 g at 4° C. to pellet debris.
# Lysis buffer (300 μl), sodium-ATP (4 μl of a 180 mM solution, pH 7, 4° C.) and cell lysate (100 μl, 4° C.) were combined in a test tube, briefly mixed and immediately placed in the luminometer. Luciferase relative light units (RLU) were recorded on a Lumat™ LB 9501 (Berthold systems, Germany) with 10 sec integration after automatic injection of 100 μl of 0.5 mM D-luciferin (prepared fresh in lysis buffer without DTT). The RLU were converted in fmol using a standard curve generated by adding a known amount of luciferase (0.01 to 100 fmols with specific activity of 2.5 nU/fmol) to 35 mm wells containing 40-70% confluent HepG2 cells. The cells were processed as described above resulting in a standard curve with an average slope of 7.8×10^6 RLU per fmol of enzyme. Protein concentrations were measured by Bradford assay using bovine serum albumin as a standard (Bradford, 1976). The amount of luciferase recovered in each sample was normalized to milligrams of protein and reported as the mean and standard deviation obtained from triplicate transfections.
# LipofectAce™ (Gibco BRL, 1:2.5 w/w dimethyl diotadecylammonium bromide and dioleoyl phosphatidylethanolamine) was used to mediate gene transfection according to the manufacturer's instructions. The ratio of DNA to LepofectAce™ was optimized for HepG2 cells. An optimal DNA/LipofectAce™ ratio was achieved by dissolving 10 μg of DNA in 100 μl serum free media (SFM) followed by adding 60 μl of LipofectAce™ prepared in 140 μl of SFM. The LipfectAce™ DNA complex was then diluted with 1.7 ml of SFM and used to transfect HepG2 cells for 5 h followed by replacing the transfecting media with media supplemented with 10% FBS. The cells were incubated for a total of 24 h, harvested and analyzed for luciferase as described above.
# [3] = system: COS 7 cells; assay: Luciferase reporter gene expression in COS 7 cells, Example 5
# [4] = system: HepG2 cells; assay: Nuclear targeted β-galactosidase (X-gal) count of transfected HepG2 cells; details: HepG2, 48 h, NTβGal plasmid
# Method: The number of cells transfected in vitro was examined using a plasmid encoding nuclear targeted β-galactosidase followed by X-gal (5-bromo-4-chloro-3-indolyl-β-galactopyranoside) staining. HepG2 and COS 7 cells were transfected for 5 h as described above with either AlkCWK18 DNA, peptide II DNA condensates, or plasmid DNA and then grown in fresh media for an additional 43 h. After removing media, cells were fixed for 5 min in phosphate-buffered saline (PBS, pH 7.3) containing 1.25 vol/vol % glutaraldehyde and then stained by incubation with 0.05 wt/v % X-gal, 1 mM magnesium chloride, 10 mM potassium ferricyanide, and 10 mM potassium ferrocyanide in PBS. After 4 h at 37° C., the X-gal solution was removed and the nuclear stained blue cells were counted with a light microscope under ten power magnification by averaging the number of transfectants from nine fields. Values were analyzed for significance by one-way analysis of variance.
Substance,"cell associated 125I-DNA, percent of dose [1]",chloroquine enhancement of gene expression relative to that of AlkCWK18 DNA condensates [2],increase in gene expression over polylysine1007 or LipofectAce ([2]; HepG2) [fold],"increase in luciferase gene expression relative to AlkCWK18 DNA condensates ([2]; HepG2, 80 μM chloroquine, 24 h) [fold]",increase in luciferase gene expression relative to AlkCWK18 [3] [fold],more cells transduced (nuclear stained) vs. AlkCWK18 [4]
Alk-S-Cys-Trp-Lys18 (C(Carboxymethyl)WKKKKKKKKKKKKKKKKKK) [AlkCWK18],Approximately 14%,,,,,
Cys-Trp-Lys17-Cys (CWKKKKKKKKKKKKKKKKKC) [Peptide II],,approximately 5 fold,5,60,10,approximately 9 fold
